Eight compounds from patent US11541028B2, “Peptide pharmaceuticals for treatment of NASH and other disorders” (Mederis Diabetes LLC, priority 2018, dated 2023) can be followed below.

Structures are written as SMILES. Numbered stars: 1 amine (or outer) side, 2 acyl side, 3 side chain; on linkers, the order of the positions; unused ones are H or OH. Bridge positions count the residues as written; N and C are the ends. Square brackets hold non-standard residues; d marks the D form. Side chains are listed from the residue outwards. Peptide text beside a SMILES is read from it. * marks the point of attachment. X1 = CCCCCCCCCCCCCCCCO[C@@H]1O[C@H](CO[C@H]2O[C@H](C(=O)*)[C@H](O)[C@H](O)[C@H]2O)[C@@H](O)[C@H](O)[C@H]1O; X2 = CCCCCCCCCCCCCCO[C@@H]1O[C@H](CO[C@H]2O[C@H](C(=O)*)[C@H](O)[C@H](O)[C@H]2O)[C@@H](O)[C@H](O)[C@H]1O; βGlcA(1-O-hexadecyl) = CCCCCCCCCCCCCCCCO[C@@H]1O[C@H](C(=O)*)[C@@H](O)[C@H](O)[C@H]1O; GlcA(1β-O-tetradecyl) = CCCCCCCCCCCCCCO[C@@H]1O[C@H](C(=O)*)[C@@H](O)[C@H](O)[C@H]1O; εLys = N[C@@H](CCCCN[*:1])C(=O)[*:2]; Aib = CC(C)(N)C(=O)O

The target in one test is T1, human glucagon receptor (Homo sapiens, UniProt P47871).
T1 construct: host or cells: CHO cells
T1 sequence (P47871 26-477): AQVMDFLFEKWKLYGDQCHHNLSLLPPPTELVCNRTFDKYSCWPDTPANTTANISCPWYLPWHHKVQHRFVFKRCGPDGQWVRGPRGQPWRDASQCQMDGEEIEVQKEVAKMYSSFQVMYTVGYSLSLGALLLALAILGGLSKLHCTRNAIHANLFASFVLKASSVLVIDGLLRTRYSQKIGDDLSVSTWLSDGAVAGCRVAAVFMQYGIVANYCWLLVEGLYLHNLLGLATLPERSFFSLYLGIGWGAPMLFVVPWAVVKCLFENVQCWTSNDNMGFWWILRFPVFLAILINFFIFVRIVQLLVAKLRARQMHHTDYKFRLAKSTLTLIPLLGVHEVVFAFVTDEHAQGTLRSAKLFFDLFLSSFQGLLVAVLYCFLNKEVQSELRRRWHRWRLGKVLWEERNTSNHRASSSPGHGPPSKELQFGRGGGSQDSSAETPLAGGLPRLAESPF
The test can be described thus: DiscoveRx LeadHunter cellular assay, cAMP stimulation, glucagon receptor in CHO cells. The class given is cell-based.

The target of a further test is T2, human GLP-1 receptor (Homo sapiens, UniProt P43220).
T2 construct: host or cells: CHO cells
T2 sequence (P43220 24-463): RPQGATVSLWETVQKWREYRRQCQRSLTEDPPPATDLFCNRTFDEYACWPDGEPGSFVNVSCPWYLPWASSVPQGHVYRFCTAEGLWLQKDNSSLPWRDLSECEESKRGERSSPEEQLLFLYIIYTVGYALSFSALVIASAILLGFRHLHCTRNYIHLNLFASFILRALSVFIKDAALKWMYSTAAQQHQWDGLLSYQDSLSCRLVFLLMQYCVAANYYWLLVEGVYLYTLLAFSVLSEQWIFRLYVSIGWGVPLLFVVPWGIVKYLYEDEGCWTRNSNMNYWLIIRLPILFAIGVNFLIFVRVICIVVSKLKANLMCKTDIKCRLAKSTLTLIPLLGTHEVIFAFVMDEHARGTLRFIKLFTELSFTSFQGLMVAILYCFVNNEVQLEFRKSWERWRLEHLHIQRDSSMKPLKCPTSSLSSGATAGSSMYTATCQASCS
The test can be described thus: DiscoveRx LeadHunter cellular assay, cAMP stimulation, GLP-1 receptor in CHO cells. The class given is cell-based. As to conditions: human GLP-1 receptor in CHO cells (DiscoveRx); read-out: EC50 cAMP GLP-1 R.

Method for human GLP-1 receptor: (§1) A further series of cellular assays was carried out with standard cellular assays (DiscoveRx, LeadHunter assays) using readout of cAMP stimulation or arrestin activation. Compounds were weighed precisely in an amount of about 1 mg and shipped to DiscoveRx for dilution and assay.
Method for human glucagon receptor: as §1

As a reminder, the EC50 is the concentration at which the effect is half-maximal. In the case of `CCCCCCCCCCCCCCO[C@@H]1O[C@H](CO[C@H]2O[C@H](C(=O)NCCCC[C@H](NC(=O)[C@H](C)NC(=O)[C@H](C)NC(=O)[C@H](CCC(N)=O)NC(=O)[C@H](CO)NC(=O)[C@H](CC(=O)O)NC(=O)[C@@H]3CCCCNC(=O)CC[C@H](NC(=O)[C@H](CC(=O)O)NC(=O)[C@H](CO)NC(=O)[C@@H](NC(=O)[C@H](Cc4ccccc4)NC(=O)[C@@H](NC(=O)CNC(=O)[C@H](CCC(N)=O)NC(=O)C(C)(C)NC(=O)[C@@H](N)Cc4c[nH]cn4)[C@@H](C)O)[C@@H](C)O)C(=O)N[C@@H](CO)C(=O)N[C@@H](CCCCN)C(=O)N[C@@H](Cc4ccc(O)cc4)C(=O)N3)C(=O)N[C@@H](CCC(=O)O)C(=O)N[C@@H](Cc3ccccc3)C(=O)N[C@H](C(=O)N[C@@H](CCC(N)=O)C(=O)N[C@@H](Cc3c[nH]c4ccccc34)C(=O)N[C@@H](CC(C)C)C(=O)N[C@@H](CC(C)C)C(=O)N[C@@H](CCC(N)=O)C(=O)N[C@H](C(N)=O)[C@@H](C)O)[C@@H](C)CC)[C@H](O)[C@H](O)[C@H]2O)[C@@H](O)[C@H](O)[C@H]1O` [EU-A1729] (H-H[Aib]QGTFTSDESKYKDSQAAK(X2)EFIQWLLQT-NH2; lactam 10-14), the concentration giving a half-maximal response (EC50) on human glucagon receptor stood at 0.558 nM; at human GLP-1 receptor it was 0.006 nM.

On to `CCCCCCCCCCCCCCCCO[C@@H]1O[C@H](CO[C@H]2O[C@H](C(=O)NCCCC[C@H](NC(=O)[C@H](C)NC(=O)[C@H](C)NC(=O)[C@H](CCC(N)=O)NC(=O)[C@H](CO)NC(=O)[C@H](CC(=O)O)NC(=O)[C@@H]3CCCCNC(=O)CC[C@H](NC(=O)[C@H](CC(=O)O)NC(=O)[C@H](CO)NC(=O)[C@@H](NC(=O)[C@H](Cc4ccccc4)NC(=O)[C@@H](NC(=O)CNC(=O)[C@H](CCC(N)=O)NC(=O)C(C)(C)NC(=O)[C@@H](N)Cc4c[nH]cn4)[C@@H](C)O)[C@@H](C)O)C(=O)N[C@@H](CO)C(=O)N[C@@H](CCCCN)C(=O)N[C@@H](Cc4ccc(O)cc4)C(=O)N3)C(=O)N[C@@H](CCC(=O)O)C(=O)N[C@@H](Cc3ccccc3)C(=O)N[C@H](C(=O)N[C@@H](CCC(N)=O)C(=O)N[C@@H](Cc3c[nH]c4ccccc34)C(=O)N[C@@H](CC(C)C)C(=O)N[C@@H](CC(C)C)C(=O)N[C@@H](CCC(N)=O)C(=O)N[C@H](C(N)=O)[C@@H](C)O)[C@@H](C)CC)[C@H](O)[C@H](O)[C@H]2O)[C@@H](O)[C@H](O)[C@H]1O` [EU-A1730] (H-H[Aib]QGTFTSDESKYKDSQAAK(X1)EFIQWLLQT-NH2; lactam 10-14; N-terminus assumed), for which the EC50 at human glucagon receptor is 1.17 nM; at human GLP-1 receptor, 0.008 nM.

`CCCCCCCCCCCCCCO[C@@H]1O[C@H](C(=O)NCCCC[C@H](NC(=O)[C@H](C)NC(=O)[C@H](C)NC(=O)[C@H](CCC(N)=O)NC(=O)[C@H](CO)NC(=O)[C@H](CC(=O)O)NC(=O)[C@@H]2CCCCNC(=O)CC[C@H](NC(=O)[C@H](CC(=O)O)NC(=O)[C@H](CO)NC(=O)[C@@H](NC(=O)[C@H](Cc3ccccc3)NC(=O)[C@@H](NC(=O)CNC(=O)[C@H](CCC(N)=O)NC(=O)C(C)(C)NC(=O)[C@@H](N)Cc3c[nH]cn3)[C@@H](C)O)[C@@H](C)O)C(=O)N[C@@H](CO)C(=O)N[C@@H](CCCCN)C(=O)N[C@@H](Cc3ccc(O)cc3)C(=O)N2)C(=O)N[C@@H](CCC(=O)O)C(=O)N[C@@H](Cc2ccccc2)C(=O)N[C@H](C(=O)N[C@@H](CCC(N)=O)C(=O)N[C@@H](Cc2c[nH]c3ccccc23)C(=O)N[C@@H](CC(C)C)C(=O)N[C@@H](CC(C)C)C(=O)N[C@@H](CCC(N)=O)C(=O)N[C@H](C(N)=O)[C@@H](C)O)[C@@H](C)CC)[C@@H](O)[C@H](O)[C@H]1O` [EU-A1734] (H-H[Aib]QGTFTSDESKYKDSQAAK(GlcA(1β-O-tetradecyl))EFIQWLLQT-NH2; lactam 10-14; N-terminus assumed): the values for the EC50 on human glucagon receptor and at human GLP-1 receptor were 0.387 nM and 0.006 nM, respectively.

Turning to `CCCCCCCCCCCCCCCCO[C@@H]1O[C@H](C(=O)NCCCC[C@H](NC(=O)[C@H](C)NC(=O)[C@H](C)NC(=O)[C@H](CCC(N)=O)NC(=O)[C@H](CO)NC(=O)[C@H](CC(=O)O)NC(=O)[C@@H]2CCCCNC(=O)CC[C@H](NC(=O)[C@H](CC(=O)O)NC(=O)[C@H](CO)NC(=O)[C@@H](NC(=O)[C@H](Cc3ccccc3)NC(=O)[C@@H](NC(=O)CNC(=O)[C@H](CCC(N)=O)NC(=O)C(C)(C)NC(=O)[C@@H](N)Cc3c[nH]cn3)[C@@H](C)O)[C@@H](C)O)C(=O)N[C@@H](CO)C(=O)N[C@@H](CCCCN)C(=O)N[C@@H](Cc3ccc(O)cc3)C(=O)N2)C(=O)N[C@@H](CCC(=O)O)C(=O)N[C@@H](Cc2ccccc2)C(=O)N[C@H](C(=O)N[C@@H](CCC(N)=O)C(=O)N[C@@H](Cc2c[nH]c3ccccc23)C(=O)N[C@@H](CC(C)C)C(=O)N[C@@H](CC(C)C)C(=O)N[C@@H](CCC(N)=O)C(=O)N[C@H](C(N)=O)[C@@H](C)O)[C@@H](C)CC)[C@@H](O)[C@H](O)[C@H]1O` [EU-A1735] (H-H[Aib]QGTFTSDESKYKDSQAAK(βGlcA(1-O-hexadecyl))EFIQWLLQT-NH2; lactam 10-14; N-terminus assumed), the values for the 50% effective concentration (EC50) on human glucagon receptor and at human GLP-1 receptor were 0.931 nM and 0.008 nM, respectively.

As for `CCCCCCCCCCCCCCO[C@@H]1O[C@H](CO[C@H]2O[C@H](C(=O)NCCCC[C@H](NC(=O)[C@H](C)NC(=O)[C@H](C)NC(=O)[C@H](CCC(N)=O)NC(=O)[C@@H]3CCCCNC(=O)CC[C@H](NC(=O)[C@H](CO)NC(=O)[C@H](Cc4ccc(O)cc4)NC(=O)[C@H](CC(=O)O)NC(=O)[C@H](CO)NC(=O)[C@@H](NC(=O)[C@H](Cc4ccccc4)NC(=O)[C@@H](NC(=O)CNC(=O)[C@H](CCC(N)=O)NC(=O)C(C)(C)NC(=O)[C@@H](N)Cc4c[nH]cn4)[C@@H](C)O)[C@@H](C)O)C(=O)N[C@@H](Cc4ccc(O)cc4)C(=O)N[C@@H](CC(C)C)C(=O)N[C@@H](CC(=O)O)C(=O)N3)C(=O)N[C@@H](CCC(=O)O)C(=O)N[C@@H](Cc3ccccc3)C(=O)N[C@H](C(=O)N[C@@H](CCC(N)=O)C(=O)N[C@@H](Cc3c[nH]c4ccccc34)C(=O)N[C@@H](CC(C)C)C(=O)N[C@@H](CC(C)C)C(=O)N[C@@H](CCC(N)=O)C(=O)N[C@H](C(N)=O)[C@@H](C)O)[C@@H](C)CC)[C@H](O)[C@H](O)[C@H]2O)[C@@H](O)[C@H](O)[C@H]1O` [EU-A1739] (H-H[Aib]QGTFTSDYSEYLDKQAAK(X2)EFIQWLLQT-NH2; lactam 12-16; N-terminus assumed), the EC50 turned out to be 2.22 nM on human glucagon receptor and 0.056 nM at human GLP-1 receptor.

`CCCCCCCCCCCCCCCCO[C@@H]1O[C@H](CO[C@H]2O[C@H](C(=O)NCCCC[C@H](NC(=O)[C@H](C)NC(=O)[C@H](C)NC(=O)[C@H](CCC(N)=O)NC(=O)[C@@H]3CCCCNC(=O)CC[C@H](NC(=O)[C@H](CO)NC(=O)[C@H](Cc4ccc(O)cc4)NC(=O)[C@H](CC(=O)O)NC(=O)[C@H](CO)NC(=O)[C@@H](NC(=O)[C@H](Cc4ccccc4)NC(=O)[C@@H](NC(=O)CNC(=O)[C@H](CCC(N)=O)NC(=O)C(C)(C)NC(=O)[C@@H](N)Cc4c[nH]cn4)[C@@H](C)O)[C@@H](C)O)C(=O)N[C@@H](Cc4ccc(O)cc4)C(=O)N[C@@H](CC(C)C)C(=O)N[C@@H](CC(=O)O)C(=O)N3)C(=O)N[C@@H](CCC(=O)O)C(=O)N[C@@H](Cc3ccccc3)C(=O)N[C@H](C(=O)N[C@@H](CCC(N)=O)C(=O)N[C@@H](Cc3c[nH]c4ccccc34)C(=O)N[C@@H](CC(C)C)C(=O)N[C@@H](CC(C)C)C(=O)N[C@@H](CCC(N)=O)C(=O)N[C@H](C(N)=O)[C@@H](C)O)[C@@H](C)CC)[C@H](O)[C@H](O)[C@H]2O)[C@@H](O)[C@H](O)[C@H]1O` [EU-A1740] (H-H[Aib]QGTFTSDYSEYLDKQAAK(X1)EFIQWLLQT-NH2; lactam 12-16; N-terminus assumed): the half-maximal effective concentration (EC50) at human glucagon receptor was 3.82 nM; at human GLP-1 receptor, 0.077 nM.

Regarding `CCCCCCCCCCCCCCCCO[C@@H]1O[C@H](C(=O)NCCCC[C@H](NC(=O)[C@H](C)NC(=O)[C@H](C)NC(=O)[C@H](CCC(N)=O)NC(=O)[C@@H]2CCCCNC(=O)CC[C@H](NC(=O)[C@H](CO)NC(=O)[C@H](Cc3ccc(O)cc3)NC(=O)[C@H](CC(=O)O)NC(=O)[C@H](CO)NC(=O)[C@@H](NC(=O)[C@H](Cc3ccccc3)NC(=O)[C@@H](NC(=O)CNC(=O)[C@H](CCC(N)=O)NC(=O)C(C)(C)NC(=O)[C@@H](N)Cc3c[nH]cn3)[C@@H](C)O)[C@@H](C)O)C(=O)N[C@@H](Cc3ccc(O)cc3)C(=O)N[C@@H](CC(C)C)C(=O)N[C@@H](CC(=O)O)C(=O)N2)C(=O)N[C@@H](CCC(=O)O)C(=O)N[C@@H](Cc2ccccc2)C(=O)N[C@H](C(=O)N[C@@H](CCC(N)=O)C(=O)N[C@@H](Cc2c[nH]c3ccccc23)C(=O)N[C@@H](CC(C)C)C(=O)N[C@@H](CC(C)C)C(=O)N[C@@H](CCC(N)=O)C(=O)N[C@H](C(N)=O)[C@@H](C)O)[C@@H](C)CC)[C@@H](O)[C@H](O)[C@H]1O` [EU-A1745] (H-H[Aib]QGTFTSDYSEYLDKQAAK(βGlcA(1-O-hexadecyl))EFIQWLLQT-NH2; lactam 12-16; N-terminus assumed), the results for the concentration giving a half-maximal response (EC50) at human glucagon receptor and at human GLP-1 receptor were 10 nM and 1.02 nM, respectively.

For `CCCCCCCCCCCCCCO[C@@H]1O[C@H](C(=O)NCCCC[C@H](N)C(=O)NCCCC[C@H](NC(=O)[C@H](C)NC(=O)[C@H](C)NC(=O)[C@H](CCC(N)=O)NC(=O)[C@@H]2CCCCNC(=O)CC[C@H](NC(=O)[C@H](CO)NC(=O)[C@H](Cc3ccc(O)cc3)NC(=O)[C@H](CC(=O)O)NC(=O)[C@H](CO)NC(=O)[C@@H](NC(=O)[C@H](Cc3ccccc3)NC(=O)[C@@H](NC(=O)CNC(=O)[C@H](CCC(N)=O)NC(=O)C(C)(C)NC(=O)[C@@H](N)Cc3c[nH]cn3)[C@@H](C)O)[C@@H](C)O)C(=O)N[C@@H](Cc3ccc(O)cc3)C(=O)N[C@@H](CC(C)C)C(=O)N[C@@H](CC(=O)O)C(=O)N2)C(=O)N[C@@H](CCC(=O)O)C(=O)N[C@@H](Cc2ccccc2)C(=O)N[C@H](C(=O)N[C@@H](CCC(N)=O)C(=O)N[C@@H](Cc2c[nH]c3ccccc23)C(=O)N[C@@H](CC(C)C)C(=O)N[C@@H](CC(C)C)C(=O)N[C@@H](CCC(N)=O)C(=O)N[C@H](C(N)=O)[C@@H](C)O)[C@@H](C)CC)[C@@H](O)[C@H](O)[C@H]1O` [EU-A1784] (H-H[Aib]QGTFTSDYSEYLDKQAAK([εLys-GlcA(1β-O-tetradecyl)])EFIQWLLQT-NH2; lactam 12-16; N-terminus assumed), the half-maximal effective concentration (EC50) on human glucagon receptor is 1.91 nM; at human GLP-1 receptor, 0.048 nM.
